# Measurements reported in paper PMC10088252.
structure (smiles),measurement,setting,value
O=C(Nc1ccc(Oc2ccnc3c2CCN3)c(F)c1)c1c[nH]cc(-c2ccc(F)cc2)c1=O,"TRAE Insomnia, any grade",300 mg QD (n=12),1 (8.3) n (%)
same,"TRAE Insomnia, grade 3-4",300 mg QD (n=12),0 n (%)
same,"TRAE Leukopenia, any grade",300 mg QD (n=12),0 n (%)
same,"TRAE Leukopenia, grade 3-4",300 mg QD (n=12),0 n (%)
same,"TRAE Nausea, any grade",300 mg QD (n=12),3 (25.0) n (%)
same,"TRAE Nausea, grade 3-4",300 mg QD (n=12),0 n (%)
same,"TRAE Neuritis, any grade",300 mg QD (n=12),0 n (%)
same,"TRAE Neuritis, grade 3-4",300 mg QD (n=12),0 n (%)
same,"TRAE Occult blood, any grade",300 mg QD (n=12),0 n (%)
same,"TRAE Occult blood, grade 3-4",300 mg QD (n=12),0 n (%)
same,"TRAE Oedema peripheral, any grade",300 mg QD (n=12),0 n (%)
same,"TRAE Oedema peripheral, grade 3-4",300 mg QD (n=12),0 n (%)
same,"TRAE Onycholysis, any grade",300 mg QD (n=12),0 n (%)
same,"TRAE Onycholysis, grade 3-4",300 mg QD (n=12),0 n (%)
same,"TRAE Oropharyngeal pain, any grade",300 mg QD (n=12),0 n (%)
same,"TRAE Oropharyngeal pain, grade 3-4",300 mg QD (n=12),0 n (%)
same,"TRAE PPE, any grade",300 mg QD (n=12),1 (8.3) n (%)
same,"TRAE PPE, grade 3-4",300 mg QD (n=12),0 n (%)
same,"TRAE Paraesthesia, any grade",300 mg QD (n=12),0 n (%)
same,"TRAE Paraesthesia, grade 3-4",300 mg QD (n=12),0 n (%)
same,"TRAE Proteinuria, any grade",300 mg QD (n=12),0 n (%)
same,"TRAE Proteinuria, grade 3-4",300 mg QD (n=12),0 n (%)
same,"TRAE Pruritus, any grade",300 mg QD (n=12),0 n (%)
same,"TRAE Pruritus, grade 3-4",300 mg QD (n=12),0 n (%)
same,"TRAE Rash maculo-papular, any grade",300 mg QD (n=12),1 (8.3) n (%)
same,"TRAE Rash maculo-papular, grade 3-4",300 mg QD (n=12),0 n (%)
same,"TRAE Sinus tachycardia, any grade",300 mg QD (n=12),0 n (%)
same,"TRAE Sinus tachycardia, grade 3-4",300 mg QD (n=12),0 n (%)
same,"TRAE Skin fissures, any grade",300 mg QD (n=12),0 n (%)
same,"TRAE Skin fissures, grade 3-4",300 mg QD (n=12),0 n (%)
same,"TRAE Supraventricular extrasystoles, any grade",300 mg QD (n=12),0 n (%)
same,"TRAE Supraventricular extrasystoles, grade 3-4",300 mg QD (n=12),0 n (%)
same,"TRAE Thrombocytopenia, any grade",300 mg QD (n=12),0 n (%)
same,"TRAE Thrombocytopenia, grade 3-4",300 mg QD (n=12),0 n (%)
same,"TRAE Upper respiratory tract infection, any grade",300 mg QD (n=12),1 (8.3) n (%)
same,"TRAE Upper respiratory tract infection, grade 3-4",300 mg QD (n=12),0 n (%)
same,"TRAE Urinary retention, any grade",300 mg QD (n=12),0 n (%)
same,"TRAE Urinary retention, grade 3-4",300 mg QD (n=12),0 n (%)
same,"TRAE Urinary tract infection, any grade",300 mg QD (n=12),0 n (%)
same,"TRAE Urinary tract infection, grade 3-4",300 mg QD (n=12),0 n (%)
same,"TRAE Ventricular arrhythmia, any grade",300 mg QD (n=12),1 (8.3) n (%)
same,"TRAE Ventricular arrhythmia, grade 3-4",300 mg QD (n=12),0 n (%)
same,"TRAE Ventricular extrasystoles, any grade",300 mg QD (n=12),1 (8.3) n (%)
same,"TRAE Ventricular extrasystoles, grade 3-4",300 mg QD (n=12),0 n (%)
same,"TRAE Vomiting, any grade",300 mg QD (n=12),0 n (%)
same,"TRAE Vomiting, grade 3-4",300 mg QD (n=12),0 n (%)
same,"TRAE Weight loss, any grade",300 mg QD (n=12),0 n (%)
same,"TRAE Weight loss, grade 3-4",300 mg QD (n=12),0 n (%)
same,"TRAE Accessory nerve disorder, any grade",400 mg BID (n=4),0 n (%)
same,"TRAE Accessory nerve disorder, grade 3-4",400 mg BID (n=4),0 n (%)
same,"TRAE Activated partial thromboplastin time prolonged, any grade",400 mg BID (n=4),0 n (%)
same,"TRAE Activated partial thromboplastin time prolonged, grade 3-4",400 mg BID (n=4),0 n (%)
same,"TRAE Anaemia, any grade",400 mg BID (n=4),0 n (%)
same,"TRAE Anaemia, grade 3-4",400 mg BID (n=4),0 n (%)
same,"TRAE Anaesthesia oral, any grade",400 mg BID (n=4),0 n (%)
same,"TRAE Anaesthesia oral, grade 3-4",400 mg BID (n=4),0 n (%)
same,"TRAE Arrhythmia, any grade",400 mg BID (n=4),0 n (%)
same,"TRAE Arrhythmia, grade 3-4",400 mg BID (n=4),0 n (%)
same,"TRAE Arthralgia, any grade",400 mg BID (n=4),0 n (%)
same,"TRAE Arthralgia, grade 3-4",400 mg BID (n=4),0 n (%)
same,"TRAE Asthenia, any grade",400 mg BID (n=4),0 n (%)
same,"TRAE Asthenia, grade 3-4",400 mg BID (n=4),0 n (%)
same,"TRAE Blister, any grade",400 mg BID (n=4),0 n (%)
same,"TRAE Blister, grade 3-4",400 mg BID (n=4),0 n (%)
same,"TRAE Chest discomfort, any grade",400 mg BID (n=4),0 n (%)
same,"TRAE Chest discomfort, grade 3-4",400 mg BID (n=4),0 n (%)
same,"TRAE Chronic kidney disease, any grade",400 mg BID (n=4),0 n (%)
same,"TRAE Chronic kidney disease, grade 3-4",400 mg BID (n=4),0 n (%)
same,"TRAE Constipation, any grade",400 mg BID (n=4),0 n (%)
same,"TRAE Constipation, grade 3-4",400 mg BID (n=4),0 n (%)
same,"TRAE Cough, any grade",400 mg BID (n=4),0 n (%)
same,"TRAE Cough, grade 3-4",400 mg BID (n=4),0 n (%)
same,"TRAE Decreased Ccr, any grade",400 mg BID (n=4),0 n (%)
same,"TRAE Decreased Ccr, grade 3-4",400 mg BID (n=4),0 n (%)
same,"TRAE Decreased appetite, any grade",400 mg BID (n=4),0 n (%)
same,"TRAE Decreased appetite, grade 3-4",400 mg BID (n=4),0 n (%)
same,"TRAE Diarrhoea, any grade",400 mg BID (n=4),0 n (%)
same,"TRAE Diarrhoea, grade 3-4",400 mg BID (n=4),0 n (%)
same,"TRAE Dizziness, any grade",400 mg BID (n=4),0 n (%)
same,"TRAE Dizziness, grade 3-4",400 mg BID (n=4),0 n (%)
same,"TRAE Dry mouth, any grade",400 mg BID (n=4),0 n (%)
same,"TRAE Dry mouth, grade 3-4",400 mg BID (n=4),0 n (%)
same,"TRAE Dysgeusia, any grade",400 mg BID (n=4),0 n (%)
same,"TRAE Dysgeusia, grade 3-4",400 mg BID (n=4),0 n (%)
